# Measured values as given in publication PMC11019635, “On-Resin Photochemical Decarboxylative Arylation of Peptides” (Organic Letters, 2023).
# Starred links: 1 amine or outer side, 2 acyl side, 3 side chain; linkers in the order of their positions; H or OH if unused. Non-standard residues stand in square brackets, D forms with d. Residues, ends and D or L forms follow the SMILES beside them. X1 = O=C([C@H](Cc1ccc2c(c1)OC(F)(F)O2)N[*:1])[*:2]; Phe(4-CF3) = N[C@@H](Cc1ccc(C(F)(F)F)cc1)C(=O)O; X2 = N#CCc1ccc(C[C@H](N[*:1])C(=O)[*:2])cc1; Phe(4-CN) = N#Cc1ccc(C[C@H](N)C(=O)O)cc1
# Target: PRMT5/MEP50 complex (Homo sapiens, UniProt O14744+Q9BQA1)
# Sequence (O14744 whole entry, species assumed): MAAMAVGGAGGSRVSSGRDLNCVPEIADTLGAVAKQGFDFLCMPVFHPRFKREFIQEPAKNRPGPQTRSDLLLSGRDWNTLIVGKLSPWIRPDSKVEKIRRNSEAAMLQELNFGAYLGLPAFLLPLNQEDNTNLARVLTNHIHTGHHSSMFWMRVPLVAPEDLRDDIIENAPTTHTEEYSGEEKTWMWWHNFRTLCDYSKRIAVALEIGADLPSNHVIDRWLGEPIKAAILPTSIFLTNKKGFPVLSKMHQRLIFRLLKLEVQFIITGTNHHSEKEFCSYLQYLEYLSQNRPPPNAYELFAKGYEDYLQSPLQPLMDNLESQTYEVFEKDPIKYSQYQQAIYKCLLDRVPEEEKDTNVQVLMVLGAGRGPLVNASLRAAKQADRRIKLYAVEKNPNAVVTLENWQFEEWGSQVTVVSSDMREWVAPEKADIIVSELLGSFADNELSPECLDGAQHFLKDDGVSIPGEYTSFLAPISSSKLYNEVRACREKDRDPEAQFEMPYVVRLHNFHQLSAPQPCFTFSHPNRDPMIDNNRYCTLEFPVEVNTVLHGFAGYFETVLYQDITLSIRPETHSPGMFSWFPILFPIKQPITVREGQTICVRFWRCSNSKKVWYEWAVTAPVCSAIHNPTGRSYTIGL
# Sequence (Q9BQA1 whole entry partner, species assumed): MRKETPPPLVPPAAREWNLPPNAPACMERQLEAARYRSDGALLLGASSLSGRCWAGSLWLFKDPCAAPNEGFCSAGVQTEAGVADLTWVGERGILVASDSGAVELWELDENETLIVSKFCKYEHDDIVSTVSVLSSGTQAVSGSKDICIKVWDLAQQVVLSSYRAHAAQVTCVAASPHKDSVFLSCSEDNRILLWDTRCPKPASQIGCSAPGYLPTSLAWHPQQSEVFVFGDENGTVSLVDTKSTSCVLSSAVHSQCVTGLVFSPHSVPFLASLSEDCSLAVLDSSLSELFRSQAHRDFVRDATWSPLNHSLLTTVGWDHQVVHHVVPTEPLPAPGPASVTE
# Experiment: Competitive fluorescence polarization assay against a tracer peptide binding to the PRMT5/MEP50 complex
# Details: competitive FP, PRMT5/MEP50 complex; relative to peptide 46
# Excerpt: Next, we used the method to perform a small SAR study on a peptide that we previously identified as an inhibitor of PRMT5 protein–protein interactions.[37] The peptide is derived from the PRMT5 binding protein RioK1 and contains a Phe that is important for high-affinity binding. We prepared a peptide with an Asp residue installed in its place, which was protected using the 2-phenylisopropyl group to avoid aspartimide formation during peptide extension that occurred while using the allyl group.[38] The batch was split, and each portion was reacted with a different Ar–Br to rapidly generate peptides with diverse Phe analogues (Figure 3C). The prepared peptides were then tested in a competitive fluorescence polarization assay against a tracer peptide binding to the PRMT5/MEP50 complex.[37] […]
# h. Competitive Fluorescence Polarization assay
# Evaluation of peptide 42-46 was performed similar to our previously described protocol.3 As tracer, we used peptide 50 from the same report. In brief, the peptides to be tested were serially diluted in buffer (50 mM HEPES, 250 mM NaCl, 1mM TCEP, and 0.01% (v/v) Tween 20, pH 8.0) in a black 384 wells plate in a total volume of 10 μl per well. Next, a mixture of PRMT5:MEP50 complex and tracer peptide 50 in the same buffer was added so that a final protein concentration of 200 nM and final tracer concentration of 1 nM was reached. The mixture was incubated for 1 hour and read on a Tecan Spark plate reader in fluorescence polarization mode set to an excitation wavelength of 485 nm and emission wavelength of 535 nm. Data was analyzed using Graphpad Prism version 9.2.0 and curves were fitted using nonlinear regression (log(inhibitor) vs. response – variable slope (four parameters)).
row,Compound,fold improvement in IC50 in comparison to the wild-type peptide 46 [fold]
1,CC(=O)N[C@H](C(=O)N1CCC[C@H]1C(=O)NCC(=O)N[C@@H](CCC(N)=O)C(=O)N[C@@H](Cc1ccc(C#N)cc1)C(=O)N[C@@H](CC(=O)O)C(=O)N[C@@H](CC(=O)O)C(=O)N[C@@H](C)C(=O)N[C@@H](CC(=O)O)C(N)=O)C(C)C [compound 42] (Ac-VPGQ[Phe(4-CN)]DDAD-NH2),3

# Same assay, conditions: competitive FP; 200 nM PRMT5:MEP50 complex, 1 nM tracer peptide 50; 50 mM HEPES, 250 mM NaCl, 1 mM TCEP, 0.01% Tween 20, pH 8.0; 1 hour incubation; ex 485 nm / em 535 nm; four-parameter fit
row,Compound,IC50 [µM]
1,CC(=O)N[C@H](C(=O)N1CCC[C@H]1C(=O)NCC(=O)N[C@@H](CCC(N)=O)C(=O)N[C@@H](Cc1ccc(C#N)cc1)C(=O)N[C@@H](CC(=O)O)C(=O)N[C@@H](CC(=O)O)C(=O)N[C@@H](C)C(=O)N[C@@H](CC(=O)O)C(N)=O)C(C)C [compound 42] (Ac-VPGQ[Phe(4-CN)]DDAD-NH2),0.56 ± 0.15
2,CC(=O)N[C@H](C(=O)N1CCC[C@H]1C(=O)NCC(=O)N[C@@H](CCC(N)=O)C(=O)N[C@@H](Cc1ccc(CC#N)cc1)C(=O)N[C@@H](CC(=O)O)C(=O)N[C@@H](CC(=O)O)C(=O)N[C@@H](C)C(=O)N[C@@H](CC(=O)O)C(N)=O)C(C)C [compound 43] (Ac-VPGQ[X2]DDAD-NH2),14.6 ± 6.37
3,CC(=O)N[C@H](C(=O)N1CCC[C@H]1C(=O)NCC(=O)N[C@@H](CCC(N)=O)C(=O)N[C@@H](Cc1ccc(C(F)(F)F)cc1)C(=O)N[C@@H](CC(=O)O)C(=O)N[C@@H](CC(=O)O)C(=O)N[C@@H](C)C(=O)N[C@@H](CC(=O)O)C(N)=O)C(C)C [compound 44] (Ac-VPGQ[Phe(4-CF3)]DDAD-NH2),6.74 ± 3.23
4,CC(=O)N[C@H](C(=O)N1CCC[C@H]1C(=O)NCC(=O)N[C@@H](CCC(N)=O)C(=O)N[C@@H](Cc1ccc2c(c1)OC(F)(F)O2)C(=O)N[C@@H](CC(=O)O)C(=O)N[C@@H](CC(=O)O)C(=O)N[C@@H](C)C(=O)N[C@@H](CC(=O)O)C(N)=O)C(C)C [compound 45] (Ac-VPGQ[X1]DDAD-NH2),17.1 ± 8.05
5,"Ac-VPGQFDDAD-NH2 [compound 46, reference compound]",1.71 ± 0.59
